Assay [1] in a line: Evaluated for its effect in the cat cardioaccelerator nerve assay at the dose of 0.0013 umol/kg. The class given is functional. The settings on record: Felis catus.
A short description of assay [2]: Evaluated for its effect in the cat cardioaccelerator nerve assay at the dose of 300 ug/kg. The class given is functional. The settings on record: Felis catus.

The term inhibition in vivo denotes the change of the read-out against control, counted positive when it falls. A high value points to a strong effect.

In assay [1], `CCCN1CCC[C@H]2c3cc(O)c(O)cc3CC[C@@H]21` came in with an inhibition in vivo at 0.0013 µmol/kg of 50%.
In the case of `CCCN1CCC[C@H]2c3cc(OC)c(O)cc3CC[C@@H]21`, at 0.3 mg/kg the inhibition in vivo in assay [2] was 50%.

These data come from ChEMBL document CHEMBL1124848, “Monomethyl ether derivatives of 7,8-dihydroxy- and 8,9-dihydroxy-4-n-propyl-1,2,3,4,4a,5,6,10b-octahydrobenzo[f]quinolines as possible products of metabolism by catechol-O-methyltransferase” (1990).
